Source: patent US20070128217A1 (priority 2003, published 2007)

Legend:
[1] = system: rabbit serum obtained by immunizing a rabbit with the SARS-CoV strain Frankfurt 1; format: binding; parameters: Binding of a rabbit serum to linear peptides / Binding of a rabbit serum to looped peptides / Rabbit serum linear peptides / Rabbit serum looped peptides / Binding of a rabbit serum to linear peptides of protein N of SARS-CoV Urbani (Rabbit serum linear peptides) / Binding of a rabbit serum to looped/cyclic peptides of protein N of SARS-CoV Urbani (Rabbit serum looped peptides): unit not given here
[2] = system: control sera (pooled serum of ten healthy LUMC hospital workers; commercial negative donor pooled serum from the Dutch bloodbank); format: binding, human
[3] = system: antibodies in sera from SARS patients (sera 1a, 1b, 2, 6, 37, 62, London, SARS-yellow, SARS-green); format: binding, human

| Sequence | Binding of a rabbit serum to linear peptides [1] | Binding of a rabbit serum to looped peptides [1] | Binding of Control Serum Blood-Bank to Looped peptides [2] | Binding of Control serum Blood-bank to linear peptides [2] | Binding of Control serum LUMC to linear peptides [2] | Binding of Control serum LUMC to looped peptides [2] | Binding of serum 1a to linear peptides of protein E of SARS-CoV Urbani [3] | Binding of serum 1a to looped/cyclic peptides of protein E of SARS-CoV Urbani [3] | Binding of serum 1b to linear peptides of protein E of SARS-CoV Urbani [3] | Binding of serum 1b to looped/cyclic peptides of protein E of SARS-CoV Urbani [3] | Binding of serum 2 to linear peptides of protein E of SARS-CoV Urbani [3] | Binding of serum 2 to looped/cyclic peptides of protein E of SARS-CoV Urbani [3] | Binding of serum 6 to linear peptides of protein E of SARS-CoV Urbani [3] | Binding of serum 6 to looped/cyclic peptides of protein E of SARS-CoV Urbani [3] | Binding of serum 37 to linear peptides of protein E of SARS-CoV Urbani [3] | Binding of serum 37 to looped/cyclic peptides of protein E of SARS-CoV Urbani [3] | Binding of serum 62 to linear peptides of protein E of SARS-CoV Urbani [3] | Binding of serum 62 to looped/cyclic peptides of protein E of SARS-CoV Urbani [3] | Binding of serum London to linear peptides of protein E of SARS-CoV Urbani [3] | Binding of serum London to looped/cyclic peptides of protein E of SARS-CoV Urbani [3] | also measured |
| --- | --- | --- | --- | --- | --- | --- | --- | --- | --- | --- | --- | --- | --- | --- | --- | --- | --- | --- | --- | --- | --- |
| LFLAFVVFLLVTLAI | 0.5 | 0.3 | 0.6 | 0.7 | 0.5 | 0.7 | 0.9 | 0.5 | 0.5 | 0.5 | 0.9 | 0.6 | 0.7 | 0.5 | 0.7 | 0.6 | 0.7 | 0.7 | 0.8 | 0.5 | Binding of serum SARS-green to linear peptides of protein E of SARS-CoV Urbani [3]: 0.5; Binding of serum SARS-green to looped/cyclic peptides of protein E of SARS-CoV Urbani [3]: 0.7; Binding of serum SARS-yellow to linear peptides of protein E of SARS-CoV Urbani [3]: 0.2; Binding of serum SARS-yellow to looped/cyclic peptides of protein E of SARS-CoV Urbani [3]: 0.9 |
| LLVTLAILTALRLCA | 0.5 | 0.8 | 0.8 | 0.7 | 0.3 | 0.8 | 0.8 | 0.7 | 0.4 | 0.1 | 0.5 | 0.6 | 0.4 | 0.4 | 0.6 | 0.3 | 0.6 | 0.8 | 0.5 | 0.4 | Binding of serum SARS-green to linear peptides of protein E of SARS-CoV Urbani [3]: 0.4; Binding of serum SARS-green to looped/cyclic peptides of protein E of SARS-CoV Urbani [3]: 0.6; Binding of serum SARS-yellow to linear peptides of protein E of SARS-CoV Urbani [3]: 0.0; Binding of serum SARS-yellow to looped/cyclic peptides of protein E of SARS-CoV Urbani [3]: 0.3 |
| LRLCAYCCNIVNVSL | 0.6 | 0.2 | 0.6 | 0.8 | 0.4 | 0.6 | 0.7 | 0.7 | 0.6 | 0.4 | 0.4 | 0.5 | 0.6 | 0.4 | 0.7 | 0.6 | 0.7 | 0.6 | 0.5 | 0.4 | Binding of serum SARS-green to linear peptides of protein E of SARS-CoV Urbani [3]: 0.3; Binding of serum SARS-green to looped/cyclic peptides of protein E of SARS-CoV Urbani [3]: 0.6; Binding of serum SARS-yellow to linear peptides of protein E of SARS-CoV Urbani [3]: 0.3; Binding of serum SARS-yellow to looped/cyclic peptides of protein E of SARS-CoV Urbani [3]: 0.6 |
| LTALRLCAYCCNIVN | 0.6 | 0.4 | 0.7 | 0.7 | 0.5 | 0.6 | 0.9 | 0.6 | 0.8 | 0.4 | 0.4 | 0.7 | 0.7 | 0.5 | 0.8 | 0.7 | 0.7 | 0.7 | 0.5 | 0.3 | Binding of serum SARS-green to linear peptides of protein E of SARS-CoV Urbani [3]: 0.3; Binding of serum SARS-green to looped/cyclic peptides of protein E of SARS-CoV Urbani [3]: 0.3; Binding of serum SARS-yellow to linear peptides of protein E of SARS-CoV Urbani [3]: 0.2; Binding of serum SARS-yellow to looped/cyclic peptides of protein E of SARS-CoV Urbani [3]: 0.4 |
| LVTLAILTALRLCAY | 0.4 | 0.3 | 0.6 | 0.6 | 0.3 | 0.8 | 0.8 | 0.6 | 0.5 | 0.5 | 0.6 | 1.0 | 0.7 | 0.4 | 0.7 | 0.7 | 0.7 | 0.6 | 0.5 | 0.4 | Binding of serum SARS-green to linear peptides of protein E of SARS-CoV Urbani [3]: 0.3; Binding of serum SARS-green to looped/cyclic peptides of protein E of SARS-CoV Urbani [3]: 0.6; Binding of serum SARS-yellow to linear peptides of protein E of SARS-CoV Urbani [3]: 0.1; Binding of serum SARS-yellow to looped/cyclic peptides of protein E of SARS-CoV Urbani [3]: 0.4 |
